Results: patent US20080119501A1, “IMMEDIATE RELEASE OXYMORPHONE COMPOSITIONS AND METHODS OF USING SAME” (priority 2006, published 2008)

Test: Single- and multiple-dose pharmacokinetic and dose-proportionality study of oxymorphone IR tablets in healthy subjects
Conditions: for AUC∞, mean: n=23; for AUC(0-inf) / concentration at 6 day / concentration at 7 day / concentration at 8 day / Cmax / half-life: both, human, oral
[1] = single dose oxymorphone IR 5 mg
[2] = single dose oxymorphone IR 5 mg, plasma
[3] = single dose oxymorphone IR 10 mg
[4] = single dose oxymorphone IR 10 mg, plasma
[5] = single dose oxymorphone IR 20 mg
[6] = single dose oxymorphone IR 20 mg, plasma
[7] = steady state, oxymorphone IR 5 mg q6 h
[8] = steady state, oxymorphone IR 10 mg q6 h
[9] = steady state, oxymorphone IR 20 mg q6 h

CN1CC[C@]23c4c5ccc(O)c4O[C@H]2C(O)CC[C@@]3(O)[C@H]1C5 (stereo partly drawn) [6-OH-oxymorphone]
t1/2 (terminal elimination half-life), mean [1]: 7.27 h | terminal elimination rate constant, mean [1]: 0.1661 h⁻¹ | tmax, median [1]: 0.50 h | Cmax, mean [2]: 095 ng/mL | AUC∞, mean [2]: 4.02 ng·h/mL | t1/2 (terminal elimination half-life), mean [3]: 13.72 h | terminal elimination rate constant, mean [3]: 0.0752 h⁻¹ | tmax, median [3]: 0.50 h | Cmax, mean [4]: 1.62 ng/mL | AUC∞, mean [4]: 9.90 ng·h/mL | t1/2 (terminal elimination half-life), mean [5]: 18.35 h | terminal elimination rate constant, mean [5]: 0.0414 h⁻¹ | tmax, median [5]: 0.50 h | Cmax, mean [6]: 3.57 ng/mL | AUC∞, mean [6]: 24.37 ng·h/mL | deviation from a linear dose response (single-dose administration): approximately 20% | AUCSS, mean [7]: 4.98 ng·h/mL | Cavg (average plasma concentration), mean [7]: 0.83 ng/mL | Cmax, mean [7]: 1.55 ng/mL | Cmin, mean [7]: 0.70 ng/mL | tmax, median [7]: 0.50 h | AUCSS, mean [8]: 10.77 ng·h/mL | Cavg (average plasma concentration), mean [8]: 1.80 ng/mL | Cmax, mean [8]: 3.12 ng/mL | Cmin, mean [8]: 1.52 ng/mL | tmax, median [8]: 0.50 h | AUCSS, mean [9]: 23.68 ng·h/mL | Cavg (average plasma concentration), mean [9]: 3.95 ng/mL | Cmax, mean [9]: 6.94 ng/mL | Cmin, mean [9]: 3.34 ng/mL | tmax, median [9]: 0.50 h | deviation from a linear dose response (steady-state concentrations): approximately 10%

CN1CC[C@]23c4c5ccc(O[C@@H]6O[C@H](C(=O)O)[C@@H](O)[C@H](O)[C@H]6O)c4O[C@H]2C(=O)CC[C@@]3(O)[C@H]1C5 [Oxymorphone-3-glucuronide, oxymorphone-3-glucuronide]
t1/2 (terminal elimination half-life), mean [1]: 8.48 h | terminal elimination rate constant, mean [1]: 0.0936 h⁻¹ | tmax, median [1]: 1.00 h | Cmax, mean [2]: 134.24 ng/mL | AUC∞, mean [2]: 650.03 ng·h/mL | t1/2 (terminal elimination half-life), mean [3]: 9.15 h | terminal elimination rate constant, mean [3]: 0.0805 h⁻¹ | tmax, median [3]: 1.00 h | Cmax, mean [4]: 265.78 ng/mL | AUC∞, mean [4]: 1322.72 ng·h/mL | t1/2 (terminal elimination half-life), mean [5]: 9.67 h | terminal elimination rate constant, mean [5]: 0.0763 h⁻¹ | tmax, median [5]: 1.00 h | Cmax, mean [6]: 516.26 ng/mL | AUC∞, mean [6]: 2672.40 ng·h/mL | AUCSS, mean [7]: 618.77 ng·h/mL | Cavg (average plasma concentration), mean [7]: 103.13 ng/mL | Cmax, mean [7]: 180.25 ng/mL | Cmin, mean [7]: 59.67 ng/mL | tmax, median [7]: 1.00 h | AUCSS, mean [8]: 1321.37 ng·h/mL | Cavg (average plasma concentration), mean [8]: 220.23 ng/mL | Cmax, mean [8]: 376.25 ng/mL | Cmin, mean [8]: 136.77 ng/mL | tmax, median [8]: 1.00 h | AUCSS, mean [9]: 2557.29 ng·h/mL | Cavg (average plasma concentration), mean [9]: 426.22 ng/mL | Cmax, mean [9]: 722.24 ng/mL | Cmin, mean [9]: 272.54 ng/mL | tmax, median [9]: 1.00 h

CN1CC[C@]23c4c5ccc(O)c4O[C@H]2C(=O)CC[C@@]3(O)[C@H]1C5 [Oxymorphone, oxymorphone]
dose proportionality of dose-normalised AUC∞, AUCss or Cmax (5-20 mg, single dose and steady state): linear and dose-proportional pharmacokinetics | AUC(0-inf) (plasma, 5 mg): 4.48 ng·h/mL | concentration at 6 day (plasma, 5 mg): 0.47 ng/mL | concentration at 7 day (plasma, 5 mg): 0.5 ng/mL | concentration at 8 day (plasma, 5 mg): 0.49 ng/mL | Cmax (plasma, 5 mg, mean, single dose oxymorphone IR 5 mg): 1.1 ng/mL | Cmax (plasma, 5 mg, mean, steady state, oxymorphone IR 5 mg q6 h): 1.73 ng/mL | half-life (plasma, 5 mg, t1/2 (terminal elimination half-life), mean, single dose oxymorphone IR 5 mg): 7.25 h | AUC(0-inf) (plasma, 10 mg): 9.1 ng·h/mL | concentration at 6 day (plasma, 10 mg): 0.98 ng/mL | concentration at 7 day (plasma, 10 mg): 0.99 ng/mL | concentration at 8 day (plasma, 10 mg): 1.16 ng/mL | Cmax (plasma, 10 mg, mean, single dose oxymorphone IR 10 mg): 1.93 ng/mL | Cmax (plasma, 10 mg, mean, steady state, oxymorphone IR 10 mg q6 h): 3.51 ng/mL | half-life (plasma, 10 mg, t1/2 (terminal elimination half-life), mean, single dose oxymorphone IR 10 mg): 7.78 h | AUC(0-inf) (plasma, 20 mg): 20.1 ng·h/mL | concentration at 6 day (plasma, 20 mg): 2.05 ng/mL | concentration at 7 day (plasma, 20 mg): 2.31 ng/mL | concentration at 8 day (plasma, 20 mg): 2.47 ng/mL | Cmax (plasma, 20 mg, mean, single dose oxymorphone IR 20 mg): 4.39 ng/mL | Cmax (plasma, 20 mg, mean, steady state, oxymorphone IR 20 mg q6 h): 7.33 ng/mL | half-life (plasma, 20 mg, elimination half-life (t1/2) across doses, single dose, oxymorphone IR 5, 10 and 20 mg): 7.3 to 9.4 h | half-life (plasma, 20 mg, t1/2 (terminal elimination half-life), mean, single dose oxymorphone IR 20 mg): 9.43 h | time to achieve steady-state conditions (dosing every 6 hours, from trough concentrations): 3 to 4 days | CL/F (oral clearance), mean [1]: 23.53 L/min | Ln-CL/F, geometric least square mean (standard error), normalised to 10 mg [1]: 20.61 (1.05) L/min | terminal elimination rate constant, mean [1]: 0.1534 h⁻¹ | CL/F (oral clearance), mean [3]: 21.42 L/min | Ln-CL/F, geometric least square mean (standard error), normalised to 10 mg [3]: 19.62 (1.05) L/min | terminal elimination rate constant, mean [3]: 0.1257 h⁻¹ | CL/F (oral clearance), mean [5]: 18.21 L/min | Ln-CL/F, geometric least square mean (standard error), normalised to 10 mg [5]: 17.27 (1.05) L/min | terminal elimination rate constant, mean [5]: 0.0835 h⁻¹ | Ln-CL/F, geometric least square mean (standard error), normalised to 10 mg (steady state, every 6 hours, oxymorphone IR 5 mg): 18.70 (1.03) L/min | Ln-CL/F, geometric least square mean (standard error), normalised to 10 mg (steady state, every 6 hours, oxymorphone IR 10 mg): 17.08 (1.03) L/min | Ln-CL/F, geometric least square mean (standard error), normalised to 10 mg (steady state, every 6 hours, oxymorphone IR 20 mg): 16.72 (1.03) L/min | C/LF (oral clearance), mean [7]: 19.23 L/min | Cavg (average plasma concentration), mean [7]: 0.77 ng/mL | Cmin, mean [7]: 0.49 ng/mL | C/LF (oral clearance), mean [8]: 17.63 L/min | Cavg (average plasma concentration), mean [8]: 1.70 ng/mL | Cmin, mean [8]: 1.16 ng/mL | tmax, median [8]: 0.50 h | C/LF (oral clearance), mean [9]: 17.68 L/min | Cavg (average plasma concentration), mean [9]: 3.52 ng/mL | Cmin, mean [9]: 2.47 ng/mL
